From US20050181029A1, “Distributed drug dispensing matrix as a transdermal patch” (priority 2004, published 2005)

Legend:
Assay type in all cases: in vitro ADME, pig
[1] = Agar gel disc assembly on Franz diffusion cell, mannitol skin permeability; conditions: agar gel disks 16, 9, 5 and 3 mm, relative to 16 mm disk; 0.5% SLS in PBS; 24 hrs
Experimental: All experiments were performed using pig skin. Skin was harvested from pigs (15) and was stored at −70° C. until the time of experiments. Skin was thawed at room temperature just before using it for experiments. […] Agar Gel Disc Assembly: A third experimental system was used to assess the dependence of permeability on contact area. In this system, permeation of mannitol from gel disks was studied. For this purpose, agar gel disks were prepared by dissolving 0.5 gm agar (Becton Dickinson Microbiology Systems, Sparks, Md.) in 20 ml of 0.5% solution (w/v) SLS in PBS. 10 μCi/ml ^3H radiolabeled mannitol was added to the mixture. The mixture was heated until agar formed a viscous solution. The viscous mixture was allowed to settle into a gel by pouring it into a petri dish to form a circular disc of 3.5 mm thickness. Disks of various diameters (16, 9, 5, and 3 mm) were then cut using a punch. […] Receiver compartments were sampled over 24 hrs and concentration of radiolabeled mannitol in these samples was measured using a scintillation counter. Permeability was calculated for each reservoir size by dividing the total flux obtained by the number of reservoirs at that particular size. Enhancement factors were calculated by dividing the permeability obtained from a disk of a particular size with reference to permeability obtained from the largest disk (16 mm).

[2] = Polycarbonate/teflon array assembly, mannitol delivery across skin vs Franz diffusion cell; conditions: reservoir size approaching 2.5 mm vs single 8 mm (16 mm diameter Franz cell) reservoir; 10 μCi/mL 3H-mannitol in 0.5% SLS in PBS; 24 hours
Experimental: The present invention is a novel transdermal drug delivery patch with an array of spatially organized reservoirs. In order to verify the validity of our invention we used three different assemblies, simulating the proposed matrix patch, that in essence provide the same working principle. All experiments were performed using pig skin. Skin was harvested from pigs (15) and was stored at −70° C. until the time of experiments. Skin was thawed at room temperature just before using it for experiments. A brief discussion of the experimental system used for the three cases follows. I. Polycarbonate/Teflon Array Assembly: This assembly consists of two plates made of polycarbonate/teflon—a donor plate and a receiver plate. The top plate (donor plate) has through holes (wells) drilled in it, each of which acts as an isolated donor chamber. The bottom plate (receiver plate) also has holes (wells) drilled in the same pattern as the donor plate and simulates the receiver compartment. The skin is placed between the donor and receiver plate and the plate assembly is clamped using four screws. […] At the end of 24 hours samples were drawn from the receiver plate and analyzed in a liquid scintillation counter (Packard Tri-Carb 2100TR, Packard Instrument Company, Meriden, Conn.). […] The data was then analyzed to verify any effect of a distributed dispensing system on the amount of drug delivered across the skin. […]

[3] = Patches holding agar gel disc reservoir arrays at constant area fraction, mannitol delivery; conditions: 3 mm reservoir array (28 reservoirs) vs one 16 mm reservoir; area fraction ~20%; skin area 10.25 cm^2; identical formulation
Text: All enhancements are obtained by normalizing the amount delivered into the skin at any particular reservoir size to that delivered at 16 mm. Error bars correspond to one standard deviation (n=5).
To experimentally determine the enhancement obtained by reservoir arrays, we created patches holding reservoir arrays containing ^3H labeled mannitol as the model solute. These patches were created at varying reservoir sizes (16 mm, 9 mm, 5 mm and 3 mm). In these patches, the reservoirs were arranged in a square pattern with the center-to-center distance between two adjacent reservoirs set to twice the reservoir diameter. […] Keeping the area fraction the same for all the reservoir sizes (˜20%) drug reservoirs were placed on these skin pieces.

[4] = Polymer (polyurethane) array assembly, mannitol skin permeability; conditions: polyurethane arrays, reservoirs 6 to 2 mm, relative to 6 mm reservoir; 0.5% SLS in PBS; 24 hrs; no clamping
Experimental: Polymer (Polyurethane) Array Assembly: Skin was placed in a PBS receiver fluid (10 ml) such that PBS contacted the skin on all sides and the bottom but not the top (FIG. 5). An array of liquid reservoirs was created by punching circular holes in a matrix pattern in a polyurethane slab (thickness=5 mm). These holes were separated from each other by one diameter. Such arrays were made for different size reservoirs (diameters in the range of 2-6 mm). The top surface of the skin was dried of any surface moisture. […]
Transdermal transport experiments were performed using mannitol as a model solute and sodium lauryl sulfate (SLS) as a model enhancer. […] Skin permeability in the skin exposed to reservoirs was calculated for each reservoir size by dividing the total amount delivered by the number of reservoirs, area of each reservoir, contact time, and mannitol concentration in each reservoir. Enhancement factors corresponding to various reservoir sizes were then calculated with reference to the permeability obtained from the largest reservoir (6 mm).
The enhancements are calculated with respect to the permeability obtained from a 6 mm reservoir.

amount of mannitol delivered across the skin per unit area, normalized to single continuous reservoir [2]: exceeding 10 fold
amount of mannitol delivered per unit macroscopic area, array vs single large reservoir [3]: about 11 times
Compound: OC[C@@H](O)[C@@H](O)[C@H](O)[C@H](O)CO [mannitol]
mannitol permeability enhancement for varying reservoir sizes [1]: significant increase in permeability is observed with a decrease in disk diameter
mannitol permeability enhancement as a function of reciprocal of reservoir size [4]: permeability enhancement increases with inverse reservoir size
